{"source": "ChEMBL document CHEMBL5465560", "about": "“Selectivity Literature for EUbOPEN Chemogenomic Library” (2024)", "key": {"[1]": {"target": "T1, Mitogen-activated protein kinase 15 (Homo sapiens) (UniProt Q8TD08)", "T1 sequence (whole entry)": "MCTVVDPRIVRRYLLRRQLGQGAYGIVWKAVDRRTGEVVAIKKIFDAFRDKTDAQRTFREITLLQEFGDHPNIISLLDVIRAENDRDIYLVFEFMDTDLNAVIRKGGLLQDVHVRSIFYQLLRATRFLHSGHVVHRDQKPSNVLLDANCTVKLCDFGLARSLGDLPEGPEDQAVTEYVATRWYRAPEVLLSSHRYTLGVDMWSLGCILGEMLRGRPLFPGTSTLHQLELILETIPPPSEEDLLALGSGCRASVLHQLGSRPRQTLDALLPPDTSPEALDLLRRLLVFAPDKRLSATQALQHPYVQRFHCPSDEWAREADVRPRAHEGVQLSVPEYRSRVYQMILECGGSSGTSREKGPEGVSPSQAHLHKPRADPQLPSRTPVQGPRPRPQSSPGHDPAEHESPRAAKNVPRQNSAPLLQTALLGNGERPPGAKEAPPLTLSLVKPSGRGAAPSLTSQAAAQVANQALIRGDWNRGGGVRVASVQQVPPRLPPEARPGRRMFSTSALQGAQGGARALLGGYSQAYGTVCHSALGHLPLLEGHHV", "test": "Selectivity interaction (KinomeScan (DiscoverX)) EUB0001049a MAPK15", "conditions": "at 1 µM"}, "[2]": {"target": "T2, Histone-arginine methyltransferase CARM1 (Homo sapiens) (UniProt Q86X55)", "T2 sequence (whole entry)": "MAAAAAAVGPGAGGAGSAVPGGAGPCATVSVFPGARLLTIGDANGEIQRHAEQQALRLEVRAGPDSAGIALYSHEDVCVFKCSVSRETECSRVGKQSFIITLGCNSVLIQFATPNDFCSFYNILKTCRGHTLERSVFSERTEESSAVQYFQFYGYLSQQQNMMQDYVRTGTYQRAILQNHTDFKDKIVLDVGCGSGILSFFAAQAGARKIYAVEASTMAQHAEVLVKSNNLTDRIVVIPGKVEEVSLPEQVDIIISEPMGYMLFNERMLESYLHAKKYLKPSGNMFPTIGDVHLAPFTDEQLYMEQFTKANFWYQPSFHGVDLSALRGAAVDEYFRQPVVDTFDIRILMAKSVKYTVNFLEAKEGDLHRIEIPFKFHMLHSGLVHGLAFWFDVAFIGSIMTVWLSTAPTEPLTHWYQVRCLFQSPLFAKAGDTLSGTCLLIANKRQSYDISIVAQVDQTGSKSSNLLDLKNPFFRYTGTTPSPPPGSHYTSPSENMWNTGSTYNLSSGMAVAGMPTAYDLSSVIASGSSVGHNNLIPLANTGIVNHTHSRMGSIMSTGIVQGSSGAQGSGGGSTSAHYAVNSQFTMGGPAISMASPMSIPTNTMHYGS", "conditions": "U-266, at 3 µM"}, "[3]": {"target": "Ribosomal protein S6 kinase alpha-3 (Homo sapiens, UniProt P51812)", "sequence (P51812 whole entry)": "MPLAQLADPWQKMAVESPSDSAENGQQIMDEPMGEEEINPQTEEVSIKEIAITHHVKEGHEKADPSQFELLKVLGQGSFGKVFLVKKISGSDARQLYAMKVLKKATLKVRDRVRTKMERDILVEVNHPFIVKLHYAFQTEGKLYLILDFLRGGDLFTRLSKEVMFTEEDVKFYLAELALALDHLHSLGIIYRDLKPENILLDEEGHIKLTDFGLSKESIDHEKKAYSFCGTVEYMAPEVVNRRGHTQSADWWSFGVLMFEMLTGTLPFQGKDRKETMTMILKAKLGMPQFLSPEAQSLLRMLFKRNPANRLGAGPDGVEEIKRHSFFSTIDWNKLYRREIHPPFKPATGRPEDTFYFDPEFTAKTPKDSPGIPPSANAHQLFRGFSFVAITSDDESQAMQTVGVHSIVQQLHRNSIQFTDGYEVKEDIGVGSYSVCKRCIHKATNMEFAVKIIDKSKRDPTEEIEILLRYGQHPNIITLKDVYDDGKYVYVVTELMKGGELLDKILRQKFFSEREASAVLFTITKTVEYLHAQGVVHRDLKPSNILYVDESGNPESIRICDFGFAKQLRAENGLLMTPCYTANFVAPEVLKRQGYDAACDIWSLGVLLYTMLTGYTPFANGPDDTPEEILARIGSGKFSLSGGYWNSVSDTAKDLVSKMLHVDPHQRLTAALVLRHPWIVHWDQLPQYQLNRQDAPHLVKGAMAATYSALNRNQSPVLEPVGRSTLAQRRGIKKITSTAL", "test": "Selectivity interaction (Ambit KINOMEscan and KiNATiv profiling in Jurkat cells) EUB0000090b RPS6KA3", "assay_type": "cell-based", "conditions": "at 1 µM"}, "Activated CDC42 kinase 1": {"target": "Activated CDC42 kinase 1 (Homo sapiens, UniProt Q07912)", "test": "Selectivity interaction (KinomeScan (DiscoverX)) EUB0000618a TNK2", "conditions": "at 10 µM"}, "[4]": {"target": "Tyrosine-protein kinase Fes/Fps (Homo sapiens) (UniProt P07332)", "sequence (P07332 whole entry)": "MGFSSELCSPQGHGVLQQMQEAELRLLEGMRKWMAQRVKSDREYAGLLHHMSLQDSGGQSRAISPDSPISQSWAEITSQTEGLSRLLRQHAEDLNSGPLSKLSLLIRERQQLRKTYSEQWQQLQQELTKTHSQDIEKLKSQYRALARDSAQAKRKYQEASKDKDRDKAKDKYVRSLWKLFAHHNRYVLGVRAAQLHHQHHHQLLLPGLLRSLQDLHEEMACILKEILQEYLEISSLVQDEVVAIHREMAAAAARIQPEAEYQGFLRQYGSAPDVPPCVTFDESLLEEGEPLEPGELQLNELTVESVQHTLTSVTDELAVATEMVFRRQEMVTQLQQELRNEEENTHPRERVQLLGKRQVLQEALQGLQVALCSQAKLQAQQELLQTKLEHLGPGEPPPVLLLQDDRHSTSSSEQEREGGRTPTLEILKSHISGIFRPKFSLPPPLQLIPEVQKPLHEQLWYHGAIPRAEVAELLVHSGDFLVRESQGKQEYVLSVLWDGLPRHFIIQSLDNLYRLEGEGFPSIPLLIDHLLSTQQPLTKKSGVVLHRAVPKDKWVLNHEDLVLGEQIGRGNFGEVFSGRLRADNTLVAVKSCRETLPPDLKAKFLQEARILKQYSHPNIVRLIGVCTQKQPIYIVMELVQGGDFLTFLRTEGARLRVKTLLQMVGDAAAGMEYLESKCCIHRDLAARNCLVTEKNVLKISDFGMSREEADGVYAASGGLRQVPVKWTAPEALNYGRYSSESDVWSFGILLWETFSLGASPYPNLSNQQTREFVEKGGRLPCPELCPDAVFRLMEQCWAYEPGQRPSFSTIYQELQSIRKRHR", "test": "Selectivity interaction (KinomeScan (DiscoverX)) EUB0000618a FES", "conditions": "at 10 µM"}, "[5]": {"target": "Platelet-derived growth factor receptor alpha (Homo sapiens, UniProt P16234)", "sequence (P16234 whole entry)": "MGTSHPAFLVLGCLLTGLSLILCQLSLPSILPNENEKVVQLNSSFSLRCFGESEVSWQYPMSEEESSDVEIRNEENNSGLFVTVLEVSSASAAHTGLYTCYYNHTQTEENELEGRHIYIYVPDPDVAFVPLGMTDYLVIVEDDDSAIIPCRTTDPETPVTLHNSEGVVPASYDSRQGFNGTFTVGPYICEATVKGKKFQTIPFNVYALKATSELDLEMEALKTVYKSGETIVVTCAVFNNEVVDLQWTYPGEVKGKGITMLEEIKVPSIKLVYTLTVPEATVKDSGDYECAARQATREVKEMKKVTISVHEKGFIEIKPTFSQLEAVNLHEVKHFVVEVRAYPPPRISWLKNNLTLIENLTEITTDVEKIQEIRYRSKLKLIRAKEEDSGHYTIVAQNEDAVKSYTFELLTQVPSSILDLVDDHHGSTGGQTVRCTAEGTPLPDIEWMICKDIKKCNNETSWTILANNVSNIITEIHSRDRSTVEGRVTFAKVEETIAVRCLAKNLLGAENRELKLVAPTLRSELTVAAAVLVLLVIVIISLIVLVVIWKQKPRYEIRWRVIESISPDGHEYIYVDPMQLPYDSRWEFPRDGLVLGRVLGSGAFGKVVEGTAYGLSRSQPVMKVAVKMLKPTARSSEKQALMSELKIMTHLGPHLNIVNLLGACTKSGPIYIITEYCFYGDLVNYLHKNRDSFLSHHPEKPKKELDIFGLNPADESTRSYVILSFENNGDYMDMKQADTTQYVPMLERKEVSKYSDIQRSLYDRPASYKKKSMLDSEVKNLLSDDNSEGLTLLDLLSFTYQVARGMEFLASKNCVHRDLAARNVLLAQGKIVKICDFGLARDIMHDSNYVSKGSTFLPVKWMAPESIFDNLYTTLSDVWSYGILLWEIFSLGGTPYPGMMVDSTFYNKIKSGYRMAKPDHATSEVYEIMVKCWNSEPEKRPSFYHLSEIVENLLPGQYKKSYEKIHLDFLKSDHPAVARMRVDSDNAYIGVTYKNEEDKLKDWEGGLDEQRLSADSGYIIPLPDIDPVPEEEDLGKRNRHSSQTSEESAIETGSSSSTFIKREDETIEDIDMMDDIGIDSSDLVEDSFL", "test": "Selectivity interaction (Upstate Kinase Profiler service (Millipore)) EUB0000056c PDGFRA", "conditions": "at 1 µM"}, "[6]": {"target": "Cyclin-dependent kinase 3 (Homo sapiens) (UniProt Q00526)", "sequence (Q00526 whole entry, looked up)": "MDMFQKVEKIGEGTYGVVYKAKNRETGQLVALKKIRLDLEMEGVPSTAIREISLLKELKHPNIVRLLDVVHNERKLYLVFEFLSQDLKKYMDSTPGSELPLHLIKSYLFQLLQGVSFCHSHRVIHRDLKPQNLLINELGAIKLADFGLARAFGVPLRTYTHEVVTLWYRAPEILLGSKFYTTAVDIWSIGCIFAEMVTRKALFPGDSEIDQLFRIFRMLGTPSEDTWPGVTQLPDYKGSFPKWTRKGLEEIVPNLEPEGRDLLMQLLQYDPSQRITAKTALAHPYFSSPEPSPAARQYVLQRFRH", "test": "Selectivity interaction (KinomeScan (DiscoverX)) EUB0000655a CDK3", "conditions": "at 10 µM"}, "Adenosine receptor A2a": {"target": "Adenosine receptor A2a (Homo sapiens, UniProt P29274)", "sequence (P29274 whole entry)": "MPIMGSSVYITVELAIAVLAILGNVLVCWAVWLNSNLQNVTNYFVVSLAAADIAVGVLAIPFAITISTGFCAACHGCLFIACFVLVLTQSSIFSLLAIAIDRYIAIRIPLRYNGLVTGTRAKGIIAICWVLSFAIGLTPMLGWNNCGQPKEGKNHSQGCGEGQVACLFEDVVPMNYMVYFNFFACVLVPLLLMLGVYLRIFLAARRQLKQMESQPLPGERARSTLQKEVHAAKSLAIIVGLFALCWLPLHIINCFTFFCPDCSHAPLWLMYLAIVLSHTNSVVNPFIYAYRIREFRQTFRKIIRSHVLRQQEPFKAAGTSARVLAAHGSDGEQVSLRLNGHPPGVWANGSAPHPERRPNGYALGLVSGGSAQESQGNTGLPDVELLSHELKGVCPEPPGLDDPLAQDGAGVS", "test": "Selectivity interaction (Panel of kinases, GPCRs, ion channels and transporters (enzymatic assay)) EUB0000266bCl ADORA2A"}, "[7]": {"target": "Phosphatidylinositol 4,5-bisphosphate 3-kinase catalytic subunit beta isoform (Homo sapiens) (UniProt P42338)", "test": "Selectivity interaction (KinomeScan (DiscoverX)) EUB0000607a PIK3CB", "conditions": "at 10 µM"}, "[8]": {"target": "Calcium/calmodulin-dependent protein kinase type II subunit delta (Homo sapiens) (UniProt Q13557)", "sequence (Q13557 whole entry)": "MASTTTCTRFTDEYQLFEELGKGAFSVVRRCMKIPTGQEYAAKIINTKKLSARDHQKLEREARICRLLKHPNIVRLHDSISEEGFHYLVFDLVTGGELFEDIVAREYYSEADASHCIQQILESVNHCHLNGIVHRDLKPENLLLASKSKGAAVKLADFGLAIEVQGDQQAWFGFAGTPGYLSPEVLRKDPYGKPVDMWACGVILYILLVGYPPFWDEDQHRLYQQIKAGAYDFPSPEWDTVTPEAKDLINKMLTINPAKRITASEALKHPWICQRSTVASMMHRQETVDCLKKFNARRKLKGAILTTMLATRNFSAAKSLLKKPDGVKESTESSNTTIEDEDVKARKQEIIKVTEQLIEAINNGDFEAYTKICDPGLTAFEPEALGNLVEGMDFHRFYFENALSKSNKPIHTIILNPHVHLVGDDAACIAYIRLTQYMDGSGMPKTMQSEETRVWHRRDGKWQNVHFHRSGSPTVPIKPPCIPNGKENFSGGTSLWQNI", "test": "Selectivity interaction (KinomeScan (DiscoverX)) EUB0000607a CAMK2D", "conditions": "at 10 µM"}, "[9]": {"target": "High affinity nerve growth factor receptor (Homo sapiens, UniProt P04629)", "test": "Selectivity interaction (Kinase panel (Z-LYTE Assay)) EUB0001632a NTRK1", "conditions": "at 10 µM"}, "[10]": {"target": "Calcium/calmodulin-dependent protein kinase kinase 1 (Homo sapiens) (UniProt Q8N5S9)", "sequence (Q8N5S9 whole entry, looked up)": "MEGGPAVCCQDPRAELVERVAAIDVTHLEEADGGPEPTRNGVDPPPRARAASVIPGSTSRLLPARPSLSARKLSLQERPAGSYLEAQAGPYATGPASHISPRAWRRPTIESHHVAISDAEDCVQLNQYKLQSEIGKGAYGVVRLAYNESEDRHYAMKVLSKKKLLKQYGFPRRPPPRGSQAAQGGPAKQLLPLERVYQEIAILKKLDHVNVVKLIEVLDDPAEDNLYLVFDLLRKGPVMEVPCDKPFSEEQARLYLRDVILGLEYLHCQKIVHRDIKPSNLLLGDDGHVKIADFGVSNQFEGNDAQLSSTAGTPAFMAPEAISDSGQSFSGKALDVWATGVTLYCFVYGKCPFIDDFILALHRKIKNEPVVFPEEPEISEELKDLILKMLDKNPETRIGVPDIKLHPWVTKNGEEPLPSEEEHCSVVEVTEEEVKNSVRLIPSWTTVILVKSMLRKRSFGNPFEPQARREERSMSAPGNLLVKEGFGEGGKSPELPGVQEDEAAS", "test": "Selectivity interaction (LanthaScreen Eu Kinase Binding Assay) EUB0001632a CAMKK1", "conditions": "at 10 µM"}}}
{"compound": "COc1cc(Nc2nc(C)cc(-c3cnn4nc(OC)ccc34)n2)cc(C(F)(F)F)c1", "values": [{"measurement": "% of control", "setting": "[1]", "result": 96, "unit": "%"}]}
{"compound": "CNCCN1CCC(c2cc(CN(C)C(=O)c3cccc(Oc4ccccc4)c3)ccn2)CC1", "values": [{"measurement": "% of growth rate", "setting": "[2]", "result": -24.4, "unit": "%"}]}
{"compound": "CN(C)C/C=C/C(=O)Nc1ccc(C(=O)N2CCCC(Nc3ncc(Cl)c(-c4c[nH]c5ccccc45)n3)C2)cc1", "note": "(configuration not stated)", "values": [{"measurement": "% of control", "setting": "[3]", "result": 5, "unit": "%"}]}
{"compound": "O[C@H]1CC[C@H](Nc2ncc3nc(Nc4c(F)cc(F)cc4F)n([C@H]4CCOC4)c3n2)CC1", "values": [{"measurement": "% of control", "setting": "Activated CDC42 kinase 1", "result": 100, "unit": "%"}, {"measurement": "% of control", "setting": "[4]", "result": 100, "unit": "%"}]}
{"compound": "Cc1ccc(-c2ccc3c(ccc4sc5c(c43)NC[C@@H](C)NC5=O)n2)cn1", "values": [{"measurement": "% of inhibition", "setting": "[5]", "result": -24, "unit": "%"}]}
{"compound": "CN(C)CCOc1ccc(-c2nc(-c3ccncc3)c(-c3ccc4c(c3)CC/C4=N\\O)[nH]2)cc1", "values": [{"measurement": "% of control", "setting": "[6]", "result": 98, "unit": "%"}]}
{"compound": "CCn1c(-c2nc3cc(C(=O)N4CCCC(N)C4)ccc3n2C)cc2ccccc21", "note": "(configuration not stated)", "values": [{"measurement": "pXC50", "setting": "Adenosine receptor A2a", "result": "< 4.5", "unit": "M"}]}
{"compound": "CNC(=O)Nc1ccc(-c2nc(N3CC4CCC(C3)O4)c3cnn(C4CCC5(CC4)OCCO5)c3n2)cc1", "values": [{"measurement": "% of control", "setting": "[7]", "result": 46, "unit": "%"}, {"measurement": "% of control", "setting": "[8]", "result": 100, "unit": "%"}]}
{"compound": "Cn1cc(-n2cnc3c(NCc4nc5cc(Cl)c(Cl)cc5[nH]4)nc(N4CCOCC4)nc32)cn1", "values": [{"measurement": "% of control", "setting": "[9]", "result": -5.4, "unit": "%"}, {"measurement": "% of inhibition", "setting": "[10]", "result": -49.1, "unit": "%"}]}
